Reference: PMC7591920, “A protein tertiary structure mimetic modulator of the Hippo signalling pathway” (Nature Communications, 2020)
Bridge positions count the residues as written; N and C are the ends. Peptide text beside a SMILES is read from it.

Key:
mTEAD4 [1] = biological target: T1, mTEAD4 (Mus musculus, UniProt Q62296); assay: SPR binding to immobilised mTEAD4; conditions: mTEAD4 amine-coupled on CM5, multi-cycle, steady-state fit 1:1 model, 10 mM HEPES 150 mM NaCl 0.05% Tween-20 pH 7.4, 0.3% DMSO, 20 °C, Fig. 1 values n = 1 replicate
T1 construct: Mouse TEAD4(210–427) cDNA fused with a 6x His-tag and a 3C protease cleavage site; 6x His-tag; 3C protease cleavage site; made in house; host or cells: E. coli BL21 DE3 RIL(K+)
Description: (§1) Sensor chips Series S CM5 (Research grade) were obtained from GE Healthcare. Prior to use, the sensor chips were equilibrated at room temperature for 15 min to prevent water condensation on the detector side of the sensor chip surface. A running buffer was prepared composed of 10 mM HEPES, 150 mM NaCl, and 0.05% (w/v) Tween-20, pH 7.4, and the system was equilibrated at 20 °C using a flow rate of 30 µL min^−1 after docking of the sensor chip. Ligand binding experiments have been performed applying the concept of multi-cycle kinetics. A contact time of 45 s was selected, followed by a 6-min dissociation phase to allow for complete dissociation of the analyte prior to the next cycle. […] Typically, seven concentrations of the analytes have been examined applying a threefold dilution pattern with 30 µM as top concentration. For the analysis, five running buffer blanks were injected to equilibrate the instrument. […] The carboxyl-dextran surface was activated for 7 min with 0.05 M NHS and 0.2 M EDC, followed by an injection of the proteins in 10 mM MES pH 6.4 at a concentration of 30–50 µg mL^−1. […] This was followed by a deactivation of the residual esters by injecting a solution of 0.5 M ethanolamine pH 8.0 for 7 min before engaging in ligand binding experiments. Reference surfaces were prepared accordingly, omitting the injection of protein over the activated reference surface.

[2] = Circular dichroism, calculated helicity; type: physicochemical; conditions: 10 mM sodium phosphate pH 7.4, 75 to 10 µM peptide, CDNN software PEPFIT mode, unbound peptide
Description: The spectra were obtained using a Jasco J-715 and a cuvette 0.1 mm. Represented CD spectra are an average of five measurements done between λ = 190 and 300 nm with a continuous scan mode, 50 nm min^−1 scan speed and data point every 1 nm. The α-helicity was calculated using CDNN software using the PEPFIT mode[42].

GST-hTEAD1 = biological target: T2, GST-hTEAD1 (Homo sapiens, UniProt P28347); assay: SPR binding to immobilised GST-hTEAD1; conditions: GST-hTEAD1 amine-coupled on CM5, multi-cycle, steady-state fit 1:1 model, 10 mM HEPES 150 mM NaCl 0.05% Tween-20 pH 7.4, 0.3% DMSO, 20 °C, Fig. 1 values n = 1 replicate
T2 construct: CDNA of hTEAD1(209–426) fused with an N-terminal GST tag; made in house; host or cells: Escherichia coli BL21 DE3 RIL(K+)
Description: as §1

mTEAD4 [3] = biological target: T1, mTEAD4; assay: Competition fluorescence polarization with mTEAD4 (alanine scan); type: binding; conditions: Ac-peptide vs FITC-labelled tracer peptide 10 nM, mTEAD4 400 nM, 1 h
Description: Competition FP: N-terminally acetylated peptides were diluted 1:1 in a 384-well plate (5 μL, 75 μM−9 pM). Ten microlitres of a mixture (1:1) of mTEAD4 and FITC-labelled peptide was added (final concentrations: acetylated peptides = 50 μM−6 pM; mTEAD4 protein = 400 nM; FITC-labelled tracer peptide = 10 nM). After 1 h, FP was measured (λ(ex) = […]). IC50 was determined from the binding curve with GraphPad from Prism.

hTEAD1 = biological target: T3, hTEAD1 (Homo sapiens, UniProt P28347); assay: Direct fluorescence polarization with hTEAD1; type: binding; conditions: direct FP, fluorescent cofactor 10 nM titrated with hTEAD1, 1 h; triplicates; read-out: FP hTEAD1 Kd of FITC labelled cofactor
T3 construct: CDNA of hTEAD1(209–426) fused with an N-terminal GST tag; GST (N); 6x His-tag (N); 3C protease cleavage site (N); made in house; host or cells: Escherichia coli BL21 DE3 RIL(K+)
Description: Supplementary Figure 15│ Binding studies of hTEAD1 by fluorescence polarization. Dissociation constants were measured […]
The fluorescent cofactor (10 nM) are directly titrated with hTEAD1. After 1 hour of incubation, fluorescence polarization was measured, and a non-linear fitting was applied to the curves to determine the […]
In the competitive binding assay, first a complex with the fluorescent cofactor (10 nM) and hTEAD1 (100 nM) was formed and after 1 hour of incubation, the unlabelled peptide was titrated. After 1 hour of incubation, fluorescence polarization was measured, and a non-linear fitting was applied to the curves to determine the half maximal inhibitory concentration. (c) Competition assay […]
Mean ± SEM of triplicates were plotted for all data. Source data are provided as a Source Data file.
(1 picture or pasted object on this page, not shown here)

T1 sequence (Q62296 210-427): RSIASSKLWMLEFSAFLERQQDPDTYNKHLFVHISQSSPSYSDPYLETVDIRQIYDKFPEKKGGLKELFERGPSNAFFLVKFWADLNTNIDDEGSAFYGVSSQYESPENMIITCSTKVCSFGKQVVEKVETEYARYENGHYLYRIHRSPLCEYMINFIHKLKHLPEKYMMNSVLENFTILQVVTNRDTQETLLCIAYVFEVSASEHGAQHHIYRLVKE
T2 sequence (P28347 209-426): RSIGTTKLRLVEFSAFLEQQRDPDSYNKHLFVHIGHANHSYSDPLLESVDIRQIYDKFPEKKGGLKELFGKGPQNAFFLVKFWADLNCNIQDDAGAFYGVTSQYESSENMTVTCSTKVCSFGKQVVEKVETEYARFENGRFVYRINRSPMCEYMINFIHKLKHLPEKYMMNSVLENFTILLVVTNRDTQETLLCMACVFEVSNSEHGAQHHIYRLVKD
T3 sequence (P28347 209-426): as above

Row | Compound | Kd (mTEAD4 [1]) | Helicity (CD) [2] | Kd (GST-hTEAD1) | IC50 (mTEAD4 [3]) | Kd (hTEAD1)
1 | CC(=O)N[C@@H](CO)C(=O)N[C@H](C(=O)N[C@@H](CC(=O)O)C(=O)N[C@@H](CC(=O)O)C(=O)N[C@@H](Cc1c[nH]cn1)C(=O)N[C@@H](Cc1ccccc1)C(=O)N[C@@H](C)C(=O)N[C@@H](CCCCN)C(=O)N[C@@H](C)C(=O)N[C@@H](CC(C)C)C(=O)NCC(N)=O)C(C)C [compound 5] (Ac-SVDDHFAKALG-NH2) | > 100000 nM | < 5% | > 100000 nM |  | 
2 | CC[C@H](C)[C@@H]1NC(=O)[C@H](CCC(N)=O)NC(=O)[C@H](CC(C)C)NC(=O)[C@H](Cc2c[nH]c3ccccc23)NC(=O)[C@H]([C@@H](C)O)NC(=O)[C@H](C)NC(=O)CNC(=O)[C@H](CC(C)C)NC(=O)[C@H](C)NC(=O)[C@H](CCCCN)NC(=O)[C@H](C)NC(=O)[C@H](Cc2ccccc2)NC(=O)[C@H](Cc2c[nH]cn2)NC(=O)[C@H](CC(=O)O)NC(=O)[C@@H](NC(=O)[C@@H](NC(=O)[C@H](CO)NC(C)=O)C(C)C)CCC(=O)NCCCC[C@@H](C(=O)N[C@@H](C)C(=O)N[C@@H](C)C(N)=O)NC1=O [compound 21] (Ac-SVEDHFAKALGATWLQIKAA-NH2; lactam 3-18) | > 100000 nM |  | > 100000 nM | > 100000 nM | 
3 | Ac-DPVVEEHFRRSLGKNYKEPEPAPNSVSITGSVDDHFAKALGDTWLQIKAAKDSA-NH2 (N-terminus and C-terminus assumed) [compound 1] | 2000 nM |  | 1400 nM |  | 17 ± 2.5 nM
